Test results taken from patent US9394305B2, “Substituted imidazo[1,2-a]pyridine compounds as tropomyosin receptor kinase a (TrkA) inhibitors” (Dr. Reddy's Laboratories Ltd., priority 2014, dated 2016).
Where two headings read alike, the source gives them in different places.

Biological target: T1, TrkA kinase (Homo sapiens, UniProt P04629)
T1 construct: purchased Upstate, USA
Assay: In vitro TrkA inhibitory activity using TR-FRET assay
Type: biochemical
Description: Compounds were screened in the TR-FRET assay with TrkA kinase. 5 ng of TrkA [Upstate, USA] kinase was used for assay. The compound was incubated with the kinase for 30 minutes at 20-35° C. After the incubation, substrate mix [40 nM Ultra light poly GT (Perkin Elmer, USA) and 500 μM ATP] was added. The above reaction was stopped by the addition of 40 mM EDTA after 30 minutes. The Eu-labelled antiphospho-tyrosine antibody [Perkin Elmer, USA] was added at 0.5 nM and the fluorescence emission at 615 nm/665 nm [excitation at 340 nm] was measured. The compounds were initially screened at 100 nM, 1 μM and 10 μM concentrations. The potent compounds with >25% inhibition at 1 μM of TrkA were taken for the full dose response studies. The final DMSO concentration in the assay was […]. For IC50 determination, ⅓^rd serial dilution was made from the 20 mM DMSO stock solution. 2 μl of these were transferred to the test wells containing 20 μl reaction mixture [Total reaction volume 22 μl]. The fluorescence was measured in Perkin Elmer Wallac 1420 Multilabel Counter Victor 3. The IC50 was determined by fitting the dose response data to a sigmoidal curve fitting equation using GraphPad Prism software version 5.

[1] = 5 ng TrkA, 500 μM ATP, values given as bins, read-out: TrkA inhibition in-vitro IC50
[2] = 5 ng TrkA, 500 μM ATP, values given as bins, read-out: TrkA inhibitory activity in-vitro IC50

T1 sequence (P04629 33-796): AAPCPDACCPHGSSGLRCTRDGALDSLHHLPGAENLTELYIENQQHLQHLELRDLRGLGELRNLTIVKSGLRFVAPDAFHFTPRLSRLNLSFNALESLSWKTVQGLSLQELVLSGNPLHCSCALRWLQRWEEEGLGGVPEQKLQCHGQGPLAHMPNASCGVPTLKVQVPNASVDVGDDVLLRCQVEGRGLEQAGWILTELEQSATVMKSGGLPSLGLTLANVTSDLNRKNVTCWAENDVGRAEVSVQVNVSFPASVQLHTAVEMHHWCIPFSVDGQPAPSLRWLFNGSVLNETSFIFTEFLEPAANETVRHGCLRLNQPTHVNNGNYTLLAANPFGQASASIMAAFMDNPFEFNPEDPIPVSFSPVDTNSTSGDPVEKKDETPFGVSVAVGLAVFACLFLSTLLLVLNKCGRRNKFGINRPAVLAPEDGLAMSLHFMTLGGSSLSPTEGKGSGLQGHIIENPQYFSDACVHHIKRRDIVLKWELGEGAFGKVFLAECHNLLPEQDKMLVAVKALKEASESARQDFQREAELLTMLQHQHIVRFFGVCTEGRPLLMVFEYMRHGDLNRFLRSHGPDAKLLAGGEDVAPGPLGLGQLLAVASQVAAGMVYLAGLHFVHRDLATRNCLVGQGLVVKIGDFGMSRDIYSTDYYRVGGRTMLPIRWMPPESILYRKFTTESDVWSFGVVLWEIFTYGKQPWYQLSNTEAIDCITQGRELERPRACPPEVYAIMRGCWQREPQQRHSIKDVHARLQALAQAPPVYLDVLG

IC50 [1] [nM]	Compound	further results
≤ 50	Cc1ccc(N(C)S(=O)(=O)NC(=O)c2cnc3ccc(N4CCC[C@@H]4c4cc(F)ccc4OC4CCOCC4)cn23)nn1 [Example 87, (R)-6-(2-(5-fluoro-2-((tetrahydro-2H-pyran-4-yl)oxy)phenyl)pyrrolidin-1-yl)-N—(N-methyl-N-(6-methylpyridazin-3-yl)sulfamoyl)imidazo[1,2-a]pyridine-3-carboxamide]	–
50 to 100	Cc1nnc(N(C)S(=O)(=O)NC(=O)c2cnc3ccc(N4C[C@@H](F)C[C@@H]4c4cc(F)ccc4OC4CCOCC4)cn23)s1 [Example 98, 6-((2R,4S)-4-fluoro-2-(5-fluoro-2-((tetrahydro-2H-pyran-4-yl)oxy)phenyl)pyrrolidin-1-yl)-N—(N-methyl-N-(5-methyl-1,3,4-thiadiazol-2-yl)sulfamoyl)imidazo[1,2-a]pyridine-3-carboxamide]	–
50 to 100	COCCN(C)S(=O)(=O)NC(=O)c1cnc2ccc(N3CCC[C@@H]3c3cc(F)ccc3OC3CCOCC3)cn12 [Example 82, (R)-6-(2-(5-fluoro-2-((tetrahydro-2H-pyran-4-yl)oxy)phenyl)pyrrolidin-1-yl)-N—(N-(2-methoxyethyl)-N-methylsulfamoyl)imidazo[1,2-a]pyridine-3-carboxamide]	–
50 to 100	CN(c1ccn(C)n1)S(=O)(=O)NC(=O)c1cnc2ccc(N3CCC[C@@H]3c3cc(F)ccc3OC3CCOCC3)cn12 [Example 91, (R)-6-(2-(5-fluoro-2-((tetrahydro-2H-pyran-4-yl)oxy)phenyl)pyrrolidin-1-yl)-N—(N-methyl-N-(1-methyl-1H-pyrazol-3-yl)sulfamoyl)imidazo[1,2-a]pyridine-3-carboxamide]	–
100 to 500	CC1(S(=O)(=O)NC(=O)c2cnc3ccc(N4CCCC4c4cc(F)cc5c4OCCO5)cn23)CC1 (stereo not drawn) [Example 50, 6-(2-(7-fluoro-2,3-dihydrobenzo[b][1,4]dioxin-5-yl)pyrrolidin-1-yl)-N-((1-methylcyclopropyl)sulfonyl)imidazo[1,2-a]pyridine-3-carboxamide]	–
≤ 50	CN(c1ccccn1)S(=O)(=O)NC(=O)c1cnc2ccc(N3C[C@@H](F)C[C@@H]3c3cc(F)ccc3OC3CCOCC3)cn12 [Example 104, 6-((2R,4S)-4-fluoro-2-(5-fluoro-2-((tetrahydro-2H-pyran-4-yl)oxy)phenyl)pyrrolidin-1-yl)-N—(N-methyl-N-(pyridin-2-yl)sulfamoyl)imidazo[1,2-a]pyridine-3-carboxamide]	–
100 to 500	O=C(NC1CCOCC1)c1cnc2ccc(N3CCC[C@@H]3c3cc(F)ccc3F)cn12 [Example 30, (R)-6-(2-(2,5-difluorophenyl)pyrrolidin-1-yl)-N-(tetrahydro-2H-pyran-4-yl)imidazo[1,2-a]pyridine-3-carboxamide]	–
≤ 50	O=C(NC(CO)CO)c1cnc2ccc(N3CCCC3c3cc(F)ccc3F)cn12 (stereo not drawn) [Example 5, 6-(2-(2,5-difluorophenyl)pyrrolidin-1-yl)-N-(1,3-dihydroxypropan-2-yl)imidazo[1,2-a]pyridine-3-carboxamide]	–
100 to 500	O=C(Nc1cnc2ccc(N3CCCC3c3cc(F)ccc3F)cn12)N1CC[C@H](O)C1 (stereo partly drawn) [Example 2, (3 S)—N-(6-(2-(2,5-difluorophenyl)pyrrolidin-1-yl)imidazo[1,2-a]pyridin-3-yl)-3-hydroxypyrrolidine-1-carboxamide]	–
≤ 50	O=C(c1cnc2ccc(N3CCCC3c3cc(F)ccc3F)cn12)N1CC(O)C1 (stereo not drawn) [Example 4, (6-(2-(2,5-difluorophenyl)pyrrolidin-1-yl)imidazo[1,2-a]pyridin-3-yl)(3-hydroxyazetidin-1-yl)methanone]	–
≤ 50	CN(c1nccs1)S(=O)(=O)NC(=O)c1cnc2ccc(N3C[C@@H](F)C[C@@H]3c3cc(F)ccc3O[C@@H]3CCOC3)cn12 [Example 77, 6-((2R,4S)-4-fluoro-2-(5-fluoro-2-(((R)-tetrahydrofuran-3-yl)oxy)phenyl)pyrrolidin-1-yl)-N—(N-methyl-N-(thiazol-2-yl)sulfamoyl)imidazo[1,2-a]pyridine-3-carboxamide]	–
≤ 50	CN(c1nncs1)S(=O)(=O)NC(=O)c1cnc2ccc(N3C[C@@H](F)C[C@@H]3c3cc(F)ccc3OC3CCOCC3)cn12 [Example 97, 6-((2R,4S)-4-fluoro-2-(5-fluoro-2-((tetrahydro-2H-pyran-4-yl)oxy)phenyl)pyrrolidin-1-yl)-N—(N-methyl-N-(1,3,4-thiadiazol-2-yl)sulfamoyl)imidazo[1,2-a]pyridine-3-carboxamide]	–
≤ 50	CC1(S(=O)(=O)NC(=O)c2cnc3ccc(N4CCCCC4c4cc(F)ccc4F)cn23)CC1 (single isomer, unassigned) [Example 69, 6-(2-(2,5-difluorophenyl)piperidin-1-yl)-N-((1-methylcyclo-propyl)sulfonyl)imidazo[1,2-a]pyridine-3-carboxamide]	–

Further lines, the compound ahead of its results:

Compound	IC50 [1] [nM]	further results
CN(CCF)S(=O)(=O)NC(=O)c1cnc2ccc(N3CCC[C@@H]3c3cc(F)ccc3F)cn12 [Example 38, (R)-6-(2-(2,5-difluorophenyl)pyrrolidin-1-yl)-N-(N-(2-fluoroethyl)-N-methylsulfamoyl)imidazo[1,2-a]pyridine-3-carboxamide]	≤ 50	–
CN(CCF)S(=O)(=O)NC(=O)c1cnc2ccc(N3C[C@@H](F)C[C@@H]3c3cc(F)ccc3OC3CCOCC3)cn12 [Example 99, 6-((2R,4S)-4-fluoro-2-(5-fluoro-2-((tetrahydro-2H-pyran-4-yl)oxy)phenyl)pyrrolidin-1-yl)-N—(N-(2-fluoroethyl)-N-methylsulfamoyl)imidazo[1,2-a]pyridine-3-carboxamide]	≤ 50	–
CN(c1ccn(C)n1)S(=O)(=O)NC(=O)c1cnc2ccc(N3C[C@@H](F)C[C@@H]3c3cc(F)ccc3O[C@@H]3CCOC3)cn12 [Example 92, 6-((2R,4S)-4-fluoro-2-(5-fluoro-2-(((R)-tetrahydrofuran-3-yl)oxy)phenyl)pyrrolidin-1-yl)-N—(N-methyl-N-(1-methyl-1H-pyrazol-3-yl)sulfamoyl)imidazo[1,2-a]pyridine-3-carboxamide]	≤ 50	–
CC1(O)CN(C(=O)c2cnc3ccc(N4CCC[C@@H]4c4cc(F)ccc4F)cn23)C1 [Example 26, (R)-(6-(2-(2,5-difluorophenyl)pyrrolidin-1-yl)imidazo[1,2-a]pyridin-3-yl)(3-hydroxy-3-methylazetidin-1-yl)methanone]	–	IC50 (bin with mixed units (lower bound nM, upper bound μM), read-out: TrkA inhibitory activity in-vitro IC50): 500 to 1000 nM
O=C(c1cnc2ccc(N3CCCC3c3cc(F)ccc3F)cn12)N1CCOCC1 (stereo not drawn) [Example 6, (6-(2-(2,5-difluorophenyl)pyrrolidin-1-yl)imidazo[1,2-a]pyridin-3-yl)(morpholino)methanone]	–	IC50 [2]: 1000 to 10000 nM
O=C(c1ccc(F)cc1)c1cnc2ccc(N3CCCC3c3cc(F)ccc3F)cn12 (stereo not drawn) [Example 10, (6-(2-(2,5-difluorophenyl)pyrrolidin-1-yl)imidazo[1,2-a]pyridin-3-yl)(4-fluorophenyl)methanone]	50 to 100	–
CC(C)(C)S(=O)(=O)NC(=O)c1cnc2ccc(N3C[C@@H](F)C[C@@H]3c3cc(F)ccc3OC3CCOCC3)cn12 [Example 94, N-(tert-butylsulfonyl)-6-((2R,4S)-4-fluoro-2-(5-fluoro-2-((tetrahydro-2H-pyran-4-yl)oxy)phenyl)pyrrolidin-1-yl)imidazo[1,2-a]pyridine-3-carboxamide]	50 to 100	–
CN1CCN(C(=O)c2cnc3ccc(N4CCCC4c4cc(F)ccc4F)cn23)CC1 (stereo not drawn) [Example 9, (6-(2-(2,5-difluorophenyl)pyrrolidin-1-yl)imidazo[1,2-a]pyridin-3-yl)(4-methylpiperazin-1-yl)methanone]	–	IC50 [2]: 1000 to 10000 nM
CN(C)C(=O)c1cnc2ccc(N3CCCC3c3cc(F)ccc3F)cn12 (stereo not drawn) [Example 8, 6-(2-(2,5-difluorophenyl)pyrrolidin-1-yl)-N,N-dimethylimidazo[1,2-a]pyridine-3-carboxamide]	100 to 500	–
O=C(Nc1ccc(F)cc1)c1cnc2ccc(N3CCCC3c3cc(F)ccc3F)cn12 (stereo not drawn) [Example 1, 6-(2-(2,5-difluorophenyl)pyrrolidin-1-yl)-N-(4-fluorophenyl)imidazo[1,2-a]pyridine-3-carboxamide]	≤ 50	–
CC(C)(C)S(=O)(=O)NC(=O)c1cnc2ccc(N3CCC[C@@H]3c3cc(F)ccc3F)cn12 [Example 31, (R)—N-(tert-butylsulfonyl)-6-(2-(2,5-difluorophenyl)pyrrolidin-1-yl)imidazo[1,2-a]pyridine-3-carboxamide]	100 to 500	–
CN(C)C(=O)Nc1cnc2ccc(N3CCCC3c3cc(F)ccc3F)cn12 (stereo not drawn) [Example 11, 3-(6-(2-(2,5-difluorophenyl)pyrrolidin-1-yl)imidazo[1,2-a]pyridin-3-yl)-1,1-dimethylurea]	–	IC50 [2]: 1000 to 10000 nM
O=C(NS(=O)(=O)c1ccc(N2CC[C@H](O)C2)cc1)c1cnc2ccc(N3CCCCC3c3cc(F)ccc3F)cn12 (stereo partly drawn) [Example 49, 6-(2-(2,5-difluorophenyl)piperidin-1-yl)-N-((4-((S)-3-hydroxypyrrolidin-1-yl)phenyl)sulfonyl)imidazo[1,2-a]pyridine-3-carboxamide]	–	IC50 [2]: 1000 to 10000 nM
O=C(O)CNC(=O)c1cnc2ccc(N3CCC[C@H]3c3cc(F)ccc3F)cn12 (single isomer, unassigned) [Example 19, 2-(6-(2-(2,5-difluorophenyl)pyrrolidin-1-yl)imidazo[1,2-a]pyridine-3-carboxamido)acetic acid]	100 to 500	–
